Laboratory results: EP4471049A1 (Zealand Pharma A/S, priority 2023, dated 2024)
pIC50: −log10 of the molar value.

Legend:
[1] = Peptide stability in simulated intestinal fluid (SIF); format: in vitro ADME
How it was run: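 Peptides were incubated at 37 °C with gentle shaking in pH 6.8 potassium phosphate SIF containing porcine pancreatin (10 g/L). Supernatants were analysed by LC-HRMS. Percent remaining at each timepoint, including 4 h, was calculated relative to time zero from absolute peak areas.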

[2] = target: IL-23 mediated STAT3 signalling (Homo sapiens, UniProt Q5VWK5); experiment: Functional inhibition of IL-23 mediated STAT3 signalling (phospho-STAT3 Tyr705 MSD, DB cells); format: cell-based; conditions: Example 2 (Tables 2-1 to 2-4), read-out: IC50 (pSTAT3)
Sequence of IL-23 mediated STAT3 signalling (Q5VWK5 24-629 limits assumed): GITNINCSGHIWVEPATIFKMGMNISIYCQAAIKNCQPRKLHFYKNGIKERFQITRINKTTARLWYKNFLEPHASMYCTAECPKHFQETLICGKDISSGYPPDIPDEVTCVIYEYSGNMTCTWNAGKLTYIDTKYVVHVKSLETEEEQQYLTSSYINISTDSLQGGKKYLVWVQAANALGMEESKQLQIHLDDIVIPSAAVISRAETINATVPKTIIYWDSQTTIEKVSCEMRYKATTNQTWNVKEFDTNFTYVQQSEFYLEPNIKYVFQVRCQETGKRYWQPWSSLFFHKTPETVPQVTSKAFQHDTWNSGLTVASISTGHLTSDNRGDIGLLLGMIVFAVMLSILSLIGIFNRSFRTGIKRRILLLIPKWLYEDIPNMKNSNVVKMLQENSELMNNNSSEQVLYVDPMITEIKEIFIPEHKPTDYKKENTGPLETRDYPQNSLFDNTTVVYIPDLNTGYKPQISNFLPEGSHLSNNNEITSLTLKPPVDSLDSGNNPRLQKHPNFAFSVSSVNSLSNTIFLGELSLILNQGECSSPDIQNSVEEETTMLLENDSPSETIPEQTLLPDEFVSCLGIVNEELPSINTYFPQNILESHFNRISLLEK
Description: The ability of compounds to inhibit IL-23 mediated signalling was determined in the human-derived DB cell line (CRL-2289) (hereafter referred to as DB cells), which endogenously expresses the human IL-23R and human IL-12R β1 subunits. Upon binding of IL-23, the IL-23R forms a heterodimer signalling complex together with IL-12R β1, which through the JAK2/STAT3 pathway promotes phosphorylation of STAT3 to form phospho-STAT3. In the assay, the functional antagonism of IL-23 mediated phospho-STAT3 formation in DB cells by the compound is quantified using reagents capable of measuring the phosphorylation state of Tyr705 of STAT3 in the form of a phospho-STAT3 (Tyr705) MSD (Meso Scale Discovery) kit.
[…]. For compounds tested in this assay, the response was normalized relative to control values to calculate the IC50 and maximal inhibitory response from a concentration response curve of the compound in presence of a fixed concentration of human IL-23.
The assay procedure was as follows. DB cells were maintained in growth medium consisting of RPMI-1640 [Invitrogen 61870-010] supplemented with 10% V/V Foetal Bovine Serum (FBS) [(heat inactivated), Invitrogen 10270-106], and 1% V/V Penicillin-Streptomycin (Pen-Strep) Solution [Invitrogen 15140]. On the day of assay, cells were resuspended in Assay buffer consisting of RPMI-1640 [Invitrogen 61870-010] supplemented with 0.1 % w/V BSA [Sigma-Aldrich A9430] to a density of 7.5x10^6 cells/mL. Compounds to be tested for inhibition of hIL-23 mediated signalling were serially diluted in Assay buffer to 3X the final concentration. A solution of hIL-23 corresponding to 3X the EC80 of hIL-23 (1.7 nM) was also prepared in Assay buffer. To initiate the assay, 20 µL of DB cell suspension (corresponding to 150.000 cells/well) was added to the wells of a 96-well V-bottom Polypropylene plate [Corning 3363] followed by addition of 3X 20 µL of the diluted test compounds to separate wells. Following preincubation of the DB cells with inhibitor for 15 min in a cell incubator (37 °C, 5% CO2), 20 µL of the prepared 3X the EC80 of hIL-23 solution was added to each well and incubated for 90 min in a cell incubator (37 °C, 5% CO2). For some wells buffer only or IL-23 only corresponding to the EC80 was added to obtain readouts needed for normalization. To terminate the assay, the plate was spun at 1000 G for 5 min to pellet cells, the supernatant removed using an 8-channel manual pipette, and then added 50 µL/well Complete Lysis Buffer from the MSD STAT3 kit (Cat# K150SVD, Mesoscale) to the cell pellet. To completely lyse cells to release phospho-STAT3 for detection, the plate was shaken for 10 min at room temperature (500 rpm) sealed with aluminium foil and placed at -80 °C for a minimum of 15 min. Detection of the phospho-STAT3 level in the cell lysate from the individual wells was determined using the MSD STAT3 kit (Cat# K150SVD, Mesoscale) and read on a Meso QuickPlex SQ 120 plate reader (Mesoscale).
For data analysis raw data counts from the Meso QuickPlex SQ 120 plate reader were normalized relative to the response by the EC80 of hIL-23 alone (no compound added) and the buffer level. Compound potency (IC50) and maximal inhibitory response (% inhibition) were estimated by computer-aided curve fitting using a 4-parameter logistic (4PL) non-linear model. […]. Typically compounds with a low IC50 are desired. Typically compounds capable of completely inhibiting the IL23-induced response are desired. […]. Table 3-2: hIL-23 (pSTAT3) antagonist IC50 and % inhibition data

CC(C)C[C@]1(C)NC(=O)[C@H](Cc2ccc3ccccc3c2)NC(=O)[C@H](Cc2ccc(OCCN)cc2)NC(=O)[C@@H]2CCNC(=O)CC[C@H](NC(=O)[C@H](CO)NC(=O)Cc3ccc(cc3)CNC(=O)CC[C@@H](C(=O)N[C@@H](CCN)C(=O)N[C@H](Cc3c[nH]cn3)C(N)=O)NC1=O)C(=O)N[C@@H](Cc1c[nH]c3ccccc13)C(=O)N[C@@H](CCC(N)=O)C(=O)N2 [Compound 13, [4-Aminomethyl-phenylacetyl](1c)*SE(2c)WQ[Dab](2c)[Y(2-aminoethoxy)][2-Nal][2-Me-Leu]E(1c)[Dab][{d}H]-[NH2]]
SIF (% remaining 4 h) ([1]; 4 h, 37 °C, pH 6.8, porcine pancreatin 10 g/L, 10 µM): 56%
remaining at 4 h, 10 µM ([1]; pig, simulated intestinal fluid (SIF) with porcine pancreatin, pH 6.8, Example 2 (Tables 2-1 to 2-4), intact peptide remaining after 4 h, read-out: SIF (% after 4 h)): 56%
pIC50 [2]: 8.17
